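Protocol summary: plate cells (96-well), add compound at 5 concentrations, incubate 48 h, interpolate endpoints linearly. At the TGI there is no net growth.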
Experiments:
Assay in all cases: NCI tumour cell line growth inhibition, 48 h
786-0 renal = tested on: 786-0 renal
CCRF-CEM leukemia = tested on: CCRF-CEM leukemia
COLO 205 colon = tested on: COLO 205 colon
HOP-62 NSCLC = tested on: HOP-62 NSCLC
IGROV1 ovarian = tested on: IGROV1 ovarian
LOX IMVI melanoma = tested on: LOX IMVI melanoma
MALME-3M melanoma = tested on: MALME-3M melanoma
MDA-MB-435 = tested on: MDA-MB-435
NCI-H23 lung = tested on: NCI-H23 lung
NCI-H522 lung = tested on: NCI-H522 lung
OVCAR-3 ovarian = tested on: OVCAR-3 ovarian
RPMI-8226 leukemia = tested on: RPMI-8226 leukemia
RXF 393 renal = tested on: RXF 393 renal
SF-295 CNS = tested on: SF-295 CNS
SW-620 colon = tested on: SW-620 colon
T-47D breast = tested on: T-47D breast
MOLT-4 leukemia = tested on: MOLT-4 leukemia
NCI-H460 lung = tested on: NCI-H460 lung
MDA-N = tested on: MDA-N

Row | SMILES | TGI (786-0 renal) [µM] | TGI (CCRF-CEM leukemia) [µM] | TGI (COLO 205 colon) [µM] | TGI (HOP-62 NSCLC) [µM] | TGI (IGROV1 ovarian) [µM] | TGI (LOX IMVI melanoma) [µM] | TGI (MALME-3M melanoma) [µM] | TGI (MDA-MB-435) [µM] | TGI (NCI-H23 lung) [µM] | TGI (NCI-H522 lung) [µM] | TGI (OVCAR-3 ovarian) [µM] | TGI (RPMI-8226 leukemia) [µM] | TGI (RXF 393 renal) [µM] | TGI (SF-295 CNS) [µM] | TGI (SW-620 colon) [µM] | TGI (T-47D breast) [µM] | TGI (MOLT-4 leukemia) [µM] | TGI (NCI-H460 lung) [µM] | TGI (MDA-N) [µM]
1 | CCCSc1ccc2[nH]c(/N=C/c3ccco3)cc2c1 | > 100 | 80 | 49.7 | > 100 | > 100 | > 100 | > 100 | > 100 | > 100 | 78.2 | > 100 | 1.4 | > 100 | > 100 | > 100 | > 100 | – | – | –
2 | CC(=O)OC1CC2C(C)(C)OC(=O)CC(OC(C)=O)[C@]2(C)C2CCC3(C)C(=CCC3[C@H]3COC(=O)C3)[C@]12C (some centres not stated) | > 100 | 65.8 | > 100 | > 100 | > 100 | > 100 | > 100 | – | > 100 | > 100 | > 100 | > 100 | > 100 | > 100 | > 100 | – | 89.5 | > 100 | –
3 | C[n+]1cc(C(O)c2ccc3c(c2)OCO3)c2ccccc2c1 (configuration not stated) | > 100 | > 100 | > 100 | > 100 | > 100 | > 100 | 65 | – | – | 48.1 | > 100 | 98.8 | 62.5 | > 100 | > 100 | – | 55.5 | > 100 | –
4 | Nc1ccc(N=Nc2ccccc2)cc1 | > 100 | > 100 | > 100 | > 100 | > 100 | > 100 | > 100 | > 100 | > 100 | – | 69.1 | – | > 100 | 57.1 | > 100 | – | > 100 | > 100 | > 100
5 | O=C1Nc2c(ccc(Cl)c2I)C1=O | 28.2 | 60.9 | 30.8 | 48.3 | 30.7 | 37 | 28.3 | – | 30.7 | 30.6 | 55.7 | 35.8 | 31.3 | 36.5 | 45.6 | – | 40.1 | 31.8 | –
6 | CCOC(=O)c1ccc(N2C(=S)N(C(=O)c3ccccc3)C(=Nc3ccccc3)C2=Nc2ccccc2)cc1 | > 100 | – | – | > 100 | > 100 | – | > 100 | > 100 | > 100 | > 100 | > 100 | > 100 | – | > 100 | > 100 | – | – | > 100 | > 100
7 | CC(C)C(=O)/C=C/c1ccc(Br)cc1 | 23.2 | 21.5 | 56.1 | – | 34.5 | 32.1 | – | – | 38.2 | 41.5 | 27.3 | 39.2 | 36 | 29.9 | 23.1 | – | 95.9 | 30.1 | –
8 | NCCN=C(Nc1ccccc1)Nc1ccccc1 | > 100 | > 100 | > 100 | > 100 | > 100 | > 100 | > 100 | > 100 | > 100 | > 100 | > 100 | > 100 | > 100 | > 100 | > 100 | – | > 100 | > 100 | > 100
9 | O=C(CSc1nnc(Cc2ccccc2)o1)Nc1ccc([N+](=O)[O-])cc1 | > 100 | > 100 | > 100 | > 100 | > 100 | > 100 | > 100 | – | > 100 | > 100 | > 100 | > 100 | > 100 | > 100 | – | – | > 100 | > 100 | –
10 | C=C1C(=O)CC2C(=O)C(C)(O)CC/C=C(\C)C(=O)CC12 (configuration not stated) | 35.6 | 23.5 | 27.4 | > 100 | 37.5 | 35.4 | 27.1 | > 55.7 | 45.7 | 17.1 | 59 | 82.9 | 40.3 | > 100 | > 34.2 | – | 17.1 | > 100 | 37.1
11 | COc1cc2ccc3c4cc(OC)c(OC(C)C)cc4cnc3c2cc1OC | > 100 | > 100 | > 100 | > 100 | > 100 | > 100 | > 100 | – | > 100 | > 100 | > 100 | > 100 | > 100 | > 100 | > 100 | – | > 100 | > 100 | –
12 | O=C(Cc1ccccc1)NN1C(=O)C(Cl)C1c1ccc(O)cc1 (configuration not stated) | > 100 | > 100 | > 100 | > 100 | > 100 | > 100 | > 100 | – | > 100 | > 100 | > 100 | > 100 | > 100 | > 100 | > 100 | – | > 100 | > 100 | –
13 | COc1cc(C)c2c(c1C)OC(=O)c1c(C)c(Cl)c(O)c(C=O)c1O2 | 24.6 | 47.3 | 76.7 | 47 | 72.7 | 42.8 | 42.3 | – | 32 | – | 9.5 | 33.4 | – | – | > 100 | – | 32 | 40.3 | –
14 | COC(=O)OCC1OC(N2C(=O)NC(=O)C(Br)C2N=[N+]=[N-])CC1OC(=O)OC (configuration not stated) | > 100 | > 100 | > 100 | > 100 | > 100 | > 100 | > 100 | – | > 100 | > 100 | > 100 | > 100 | > 100 | > 100 | > 100 | – | – | > 100 | –
15 | O=C1OC2(OC2c2ccccc2)c2ccccc21 (configuration not stated) | > 100 | > 100 | > 100 | > 100 | > 100 | > 100 | > 100 | – | > 100 | > 100 | > 100 | > 100 | > 100 | – | > 100 | – | > 100 | > 100 | –
